Measurements: patent US20100184851A1, “INHIBITION OF CELL PROLIFERATION” (priority 2008, published 2010)
Where a name gives a salt, the structure may show the parent alone. Read-outs that look alike come from different tables or passages of the source. Blank lines part the entries; values can stand above or below the compound they belong to.

Assays:
Rb:Raf-1 binding = target: T1, Rb:Raf-1 binding (Homo sapiens, UniProt P06400); assay: GST-Rb/GST-Raf-1 ELISA, inhibition of Rb:Raf-1 binding
T1 construct: a glutathione S-transferase (GST) Raf-1 (1-149aa) overnight at 4° C; made in house
T1 sequence (P06400 1-928): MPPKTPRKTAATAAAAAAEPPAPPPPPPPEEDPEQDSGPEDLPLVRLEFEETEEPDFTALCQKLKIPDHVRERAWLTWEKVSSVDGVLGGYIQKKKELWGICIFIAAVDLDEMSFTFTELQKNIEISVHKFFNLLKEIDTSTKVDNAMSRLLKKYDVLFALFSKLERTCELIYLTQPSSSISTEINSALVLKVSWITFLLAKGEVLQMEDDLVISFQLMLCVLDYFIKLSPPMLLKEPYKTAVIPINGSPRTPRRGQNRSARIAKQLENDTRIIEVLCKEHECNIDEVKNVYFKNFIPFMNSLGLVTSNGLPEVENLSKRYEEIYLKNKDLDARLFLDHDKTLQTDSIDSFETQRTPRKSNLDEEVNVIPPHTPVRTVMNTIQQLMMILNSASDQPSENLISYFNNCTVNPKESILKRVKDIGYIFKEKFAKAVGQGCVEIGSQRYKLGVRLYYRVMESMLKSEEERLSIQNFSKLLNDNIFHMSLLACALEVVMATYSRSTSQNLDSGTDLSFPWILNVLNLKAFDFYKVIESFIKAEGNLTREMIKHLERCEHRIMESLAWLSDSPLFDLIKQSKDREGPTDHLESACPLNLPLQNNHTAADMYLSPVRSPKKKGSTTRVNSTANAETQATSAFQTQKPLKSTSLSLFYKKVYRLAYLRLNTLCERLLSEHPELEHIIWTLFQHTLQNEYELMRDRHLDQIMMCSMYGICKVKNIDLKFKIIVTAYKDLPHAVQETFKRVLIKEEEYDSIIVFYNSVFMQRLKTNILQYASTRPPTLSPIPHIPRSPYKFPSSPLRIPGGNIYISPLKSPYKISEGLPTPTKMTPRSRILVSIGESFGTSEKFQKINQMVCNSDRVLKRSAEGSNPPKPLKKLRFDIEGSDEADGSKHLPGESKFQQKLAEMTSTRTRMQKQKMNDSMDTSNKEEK
Description: Cell culture and transfection. The human promyelocytic leukemia cell line U937 was cultured in RPMI (Mediatech, Hernden, Va.) containing 10% fetal bovine serum (FBS; Mediatech). U2-OS, Saos-2, MCF7, PANC1 and MDA-MB-231 cell lines were cultured in Dulbecco modified Eagle Medium (DMEM; Mediatech) containing 10% FBS. A549 cells and A549 shRNA Rb cell lines were maintained in Ham F-12K supplemented with 10% FBS. ShRNA cells lines were maintained in media containing 0.5 μg/mL puromycin. H1650, PC-9 and Aspc1 cell line were cultured in RPMI (Gibco/Invitrogen, Carlsbad, Calif.) containing 10% FBS. PANC1 and CAPAN2 pancreatic cell lines and the A375 Melanoma cell line was grown in DMEM supplemented with 10% FBS. Human aortic endothelial cells (HAECs, Clonetics, San Diego, Calif.) were cultured in endothelial growth medium, supplemented with 5% FBS, according to the manufacturer's instructions. U251MG and U87MG glioma cell lines were maintained in DMEM supplemented with non-essential amino acids, […] β-mercaptoethanol, and 10% FBS. ShRNA cell lines were made by stably transfecting A549 cells with two different shRNA constructs that specifically target Rb obtained from a library. The adenovirus (Ad) constructs Ad-green fluorescent protein (GFP) and Ad-E2F1 were obtained from W. D. Cress. Ad-cyclin D was provided by I. Cozar-Castellano. In vitro library screening assays. Enzyme Linked ImmunoSorbent Assay (ELISA) 96-well plates were coated with 1 μg/mL of a glutathione S-transferase (GST) Raf-1 (1-149aa) overnight at 4° C. […] GST-Rb +/− compounds were then added to the plate and incubated for 90 minutes (min) at 37° C. The amount of Rb bound to Raf-1 was detected by Rb polyclonal antibody (Santa Cruz Biotechnology, Santa Cruz, Calif.) 1:1000 incubated for 60 min at 37° C. Donkey-anti-rabbit-IgG-HRP (1:10,000) was added to the plate and incubated at 37° C. for 60 minutes. The color was developed with orthophenylenediamine (Sigma, St. Louis, Mo.) and the reaction was terminated with 3 molar (M) H2SO4. Absorbance was read at 490 nanometers (nm). To determine disruption of Rb to E2F1, Phb, or HDAC1 the above protocol was used with the exception of coating GST Rb on the ELISA plate and adding the drugs in the presence or absence of GST E2F1, Phb, or HDAC1. E2F1 monoclonal antibody (1:2000) was used to detect the amount of Rb bound to E2F1. Prohibition monoclonal antibody was used at 1:1000 to detect the amount of Rb bound to Prohibition. For disruption of MEK-Raf-1 binding ELISAs, Raf-1 1 microgram/milliliter (μg/mL) was coated on the plate and GST-MEK (20 μg/mL) was incubated +/− the compounds for 30 minutes at room temperature. Mek1 polyclonal antibody was used at 1:1000 to detect the binding of Raf-1 to Mek1. The IC50 concentrations for the Rb:Raf-1 inhibitors were determined by plotting with Origin 7.5 software (Origin, Northampton, Mass.). In vitro binding assays. Glutathione S-transferase (GST) fusion of Rb, Raf-1, E2F1, and MEK1 have been previously described (Dasgupta P, Sun J, Wang S, et al. Mol Cell Biol 2004; 24(21):9527-9541). First, 200 micrograms (pig) of U937 asynchronous lysates were pre-incubated with 10 μM of the indicated drugs or 1 μM of the Raf-1 peptide for 30 minutes at 4° C. Next, 200 μg of the U937 lysates were incubated with glutathione beads carrying an equal amount of the GST fusion proteins in 200 μl of protein binding buffer (20 mM Tris [pH 7.5], 50 mM KCL, 0.5 mM EDTA, 1 mM dithiothreitol, 0.5% NP-40, 3 mg of bovine serum albumin/mL) at 4° C. for 2 h. (Wang S, Ghosh R, Chellappan S. Mol Cell Biol 1998; 18(12):7487-7498). Matrigel Assays. Matrigel (Collaborative Biomedical Products) was used to promote the differentiation of HAECs into capillary tube-like structures (Dasgupta P, Sun J, Wang S, et al. Mol Cell Biol 2004; 24(21):9527-9541). A total of 100 μl of thawed Matrigel was added to 96-well tissue culture plates, followed by incubation at 37° C. for 60 minutes to allow polymerization. […]

[1] = test system: A549 cells lacking Raf-1 (sh-13B); assay: BrdU incorporation, A549 cells lacking Raf-1; assay type: cell-based, human; conditions: 20 μM
Description: A549 cells lacking Raf-1 (sh-13B) were generated by stably transfecting a shRNA to Raf-1. Control cells were generated by stably transfecting A549 cells with a control shRNA. The cells were incubated in the presence or absence of compounds 3a, 10b and 10c (20 μM) and S-phase entry was assessed by measuring BrdU incorporation. Relative to controls incubated in the absence of compound, proliferation of the cells with control shRNA (having Raf-1) was inhibited by each of the compounds. In contrast, proliferation of the cells lacking Raf-1 (the cells transfected with Raf-inhibitory shRNA) was not inhibited by the compound. This experiment provides evidence that inhibition of cell proliferation by compounds of the invention is mediated by Raf-1 […].

[2] = class symbol **, 20 μM, read-out: Inhibition at 10 μM or 20 μM
[3] = read-out: inhibition of the Rb:Raf-1 interaction
[4] = at 20 μM, read-out: Inhibition at 10 μM or 20 μM
[5] = first value of cell, concentration not printed (head: 10 μM), read-out: Inhibition at 10 μM or 20 μM
[6] = class symbols, 10 μM, read-out: % Inhibition at 10 or 20 μM

inhibition at 20 µM (Rb:Raf-1 binding; [2]): 50 to 100%
Compound: N=C(N)NC(=N)SCc1cc2c(cc1Cl)OCO2 [Compound 10h, (6-Chlorobenzo[d][1,3-dioxol-5-yl)methyl Amidinoisothiourea Hydrochloride]

Compound: N=C(N)SCc1ccc(Cl)cc1Cl [Compound 1, reference compound]
inhibition at 20 µM (Rb:Raf-1 binding; [3]): 100%

inhibition at 10 µM (Rb:Raf-1 binding; class symbol +, 10 μM, read-out: Inhibition at 10 μM or 20 μM): 25 to 50%
melting point: 183 to 185 °C
Compound: Cl.N=C(N)NC(=N)SCc1ccc(Cl)cc1[N+](=O)[O-] [Compound 10d, (2-Nitro-4-chlorophenyl)methyl Amidinoisothiourea Hydrochloride]

inhibition at 20 µM (Rb:Raf-1 binding; [2]): 50 to 100%
melting point: 154 to 156 °C
Compound: Cl.N=C(N)NC(=N)SCc1ccc(F)cc1Cl [Compound 10a, (2-Chloro-4-fluorophenyl)methyl Amidinoisothiourea Hydrochloride]

inhibition at 20 µM (Rb:Raf-1 binding; [2]): 50 to 100%
Compound: N=C(N)NC(=N)SCc1cc(Cl)ccc1Cl [Compound 10f, (2,5-Dichlorophenyl)methyl Amidinoisothiourea Hydrochloride]

inhibition at 20 µM (Rb:Raf-1 binding; [4]): 42%
inhibition at 10 µM (Rb:Raf-1 binding; [5]): 6%
Compound: N=C(N)NC(=N)SCc1ccc(Cl)c(F)c1 [Compound 10i, (4-Chloro-3-fluorophenyl)methyl Amidinoisothiourea Hydrochloride]

Compound: Cl.N=C(N)SCc1ccc(Cl)cc1Cl [Compound 3a, (2,4-Dichlorophenyl)methyl Isothiourea Hydrochloride]
proliferation (S-phase entry, BrdU incorporation) [1]: not inhibited

inhibition at 20 µM (Rb:Raf-1 binding; [2]): 50 to 100%
Compound: N=C(N)NC(=N)SCc1c(F)cccc1Cl [Compound 10g, (2-Chloro-6-fluorophenyl)methyl Amidinoisothiourea Hydrochloride]

inhibition at 10 µM (Rb:Raf-1 binding; [6]): 25 to 50%
Compound: N=C(N)SCc1ccc(Cl)cc1[N+](=O)[O-] [Compound 3u, (4-Chloro-2-nitrophenyl)methyl Isothiourea Hydrochloride]

inhibition at 10 µM (Rb:Raf-1 binding; read-out: Inhibition at 10 μM): 50 to 100%
melting point: 160 to 162 °C
Compound: Cl.N=C(N)NC(=N)SCc1ccc2ccccc2c1Br [Compound 11b, 2-(1-Bromonaphthyl)methyl amidinoisothiourea hydrochloride]

inhibition at 20 µM (Rb:Raf-1 binding; [2]): 50 to 100%
melting point: 144 to 146 °C
Compound: Cl.N=C(N)NC(=N)SCc1ccc(F)cc1F [Compound 10b, (2,4-Difluorophenyl)methyl Amidinoisothiourea Hydrochloride]
proliferation (S-phase entry, BrdU incorporation) [1]: not inhibited

inhibition at 20 µM (Rb:Raf-1 binding; [4]): 22%
inhibition at 10 µM (Rb:Raf-1 binding; [5]): 6%
Compound: N#Cc1ccc(CSC(=N)NC(=N)N)cc1 [Compound 10e, (4-Cyanophenyl)methyl Amidinoisothiourea Hydrochloride]

inhibition at 10 µM (Rb:Raf-1 binding; [6]): 50 to 100%
Compound: N=C(N)SCc1ccc(F)cc1Cl [Compound 3v, 2-Chloro-4-fluorophenyl)methyl isothiourea Hydrochloride]

inhibition at 20 µM (Rb:Raf-1 binding; [2]): 50 to 100%
Compound: N=C(N)NC(=N)SCc1c(F)cccc1F [Compound 10j, (2,6-Difluorophenyl)methyl Amidinoisothiourea Hydrochloride]

inhibition at 20 µM (Rb:Raf-1 binding; [2]): 50 to 100%
melting point: 139 to 142 °C
Compound: Cl.N=C(N)NC(=N)SCc1ccc(Cl)cc1Cl [Compound 10c, (2,4-Dichlorophenyl)methyl Amidinoisothiourea Hydrochloride]
proliferation (S-phase entry, BrdU incorporation) [1]: not inhibited

inhibition at 10 µM (Rb:Raf-1 binding; [6]): 50 to 100%
Compound: N=C(N)SCc1ccc(F)cc1F [Compound 3w, (2,4-Difluorophenyl)methyl isothiourea Hydrochloride]

inhibition at 10 µM (Rb:Raf-1 binding; read-out: Inhibition at 10 μM): 50 to 100%
melting point: 175 to 177 °C
Compound: Cl.N=C(N)NC(=N)SCc1ccc2ccccc2c1 [Compound 11a, (2-Naphthyl)methyl Amidinoisothiourea hydrochloride]

Compound: N=C(N)SCc1ccc(Cl)c2ccccc12 [Compound 2, reference compound]
inhibition at 20 µM (Rb:Raf-1 binding; [3]): 95%
